Results published in publication PMC7932521, “2-aminobenzimidazoles for leishmaniasis: From initial hit discovery to in vivo profiling” (PLoS Neglected Tropical Diseases, 2021).
Converted amounts (≈) assume the structure as drawn.

Legend:
Kinetic solubility = assay type: physicochemical; conditions: for solubility kinetic at 24 h: PBS buffer pH 7.4, aqueous buffer, kinetic from dmso stock, PBS pH 7.4, read-out: KS PBS - pH7.4; for KS pH 7.4: kinetic solubility
Description: The precipitates on the incubation plate were removed by centrifugation (15 min, 3000 rpm, r.t.); the compound concentration in the resulting supernatant was determined by LC-MS/MS. Results were calculated as the concentration of remaining compound in solution after incubation.

5-HT1A [1] = target: T1, 5-HT1A (Homo sapiens, UniProt P08908); assay: Bioprofiling 6pt Ag 5-HT1A CHO; assay type: cell-based; conditions: agonist readout
T1 construct: expressed in transfected cells; host or cells: CHO
T1 sequence (P08908 1-422): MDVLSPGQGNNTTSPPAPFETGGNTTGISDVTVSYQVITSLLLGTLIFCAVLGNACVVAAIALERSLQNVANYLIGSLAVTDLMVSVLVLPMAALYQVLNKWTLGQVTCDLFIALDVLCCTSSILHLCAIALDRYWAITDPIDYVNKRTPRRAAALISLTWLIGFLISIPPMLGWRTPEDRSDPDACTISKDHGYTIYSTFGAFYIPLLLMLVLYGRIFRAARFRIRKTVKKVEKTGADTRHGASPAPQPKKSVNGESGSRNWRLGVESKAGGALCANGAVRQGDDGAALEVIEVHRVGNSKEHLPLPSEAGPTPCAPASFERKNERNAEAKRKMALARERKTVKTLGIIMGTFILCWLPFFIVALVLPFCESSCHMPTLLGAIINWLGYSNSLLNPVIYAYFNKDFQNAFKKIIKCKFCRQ
Description: (§1) The compounds were evaluated across a panel of 20 liability targets (37 functional assays) which included functional cell-based GPCRs and ion channels in both agonist and antagonist readout, measuring calcium flux and biochemical functional assays for nuclear hormone receptors and phosphodiesterases using TR-FRET format, in a 6 point 1:3 dilution dose series (maximum final concentration of 10 μM).

5-HT2A = target: T2, 5-HT2A (Homo sapiens, UniProt P28223); assay: Bioprofiling 6pt Ag 5-HT2A CHO; assay type: cell-based; conditions: agonist readout
T2 construct: expressed in transfected cells; host or cells: CHO
Description: as §1

Alpha1A = target: T3, Alpha1A (Homo sapiens, UniProt P35348); assay: Bioprofiling 6pt Ag Alpha1A CHO; assay type: cell-based; conditions: agonist readout
T3 construct: expressed in transfected cells; host or cells: CHO
T3 sequence (P35348 1-466): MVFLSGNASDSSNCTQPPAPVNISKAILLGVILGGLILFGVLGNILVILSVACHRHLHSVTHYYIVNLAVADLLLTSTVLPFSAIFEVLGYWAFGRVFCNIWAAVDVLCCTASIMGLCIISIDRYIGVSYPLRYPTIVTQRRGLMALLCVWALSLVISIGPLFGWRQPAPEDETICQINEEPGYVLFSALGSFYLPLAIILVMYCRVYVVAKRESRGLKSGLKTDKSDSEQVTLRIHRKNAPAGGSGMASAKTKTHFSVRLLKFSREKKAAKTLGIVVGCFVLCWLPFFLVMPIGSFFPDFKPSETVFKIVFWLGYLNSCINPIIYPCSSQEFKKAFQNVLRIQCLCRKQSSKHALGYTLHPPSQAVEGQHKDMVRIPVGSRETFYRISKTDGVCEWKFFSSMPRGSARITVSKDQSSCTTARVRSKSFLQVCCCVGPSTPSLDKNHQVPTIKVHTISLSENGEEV
Description: as §1

Cav1.2 (L-type) [2] = target: T4, Cav1.2 (L-type) (Mus musculus, UniProt Q01815); assay: Bioprofiling 6pt Ag Cav1.2 (L-type) ND7/23; assay type: cell-based; conditions: mouse/rat, ND7/23 cells; agonist readout
Description: as §1

H1 = target: T5, H1 (Homo sapiens, UniProt P35367); assay: Bioprofiling 6pt Ag H1 CHO; assay type: cell-based; conditions: agonist readout
T5 construct: expressed in transfected cells; host or cells: CHO
Description: as §1

PPARgamma = target: T6, PPARgamma (Homo sapiens, UniProt P37231); assay: Bioprofiling 6pt Ag PPARgamma; assay type: biochemical; conditions: agonist readout
T6 sequence (P37231 1-505): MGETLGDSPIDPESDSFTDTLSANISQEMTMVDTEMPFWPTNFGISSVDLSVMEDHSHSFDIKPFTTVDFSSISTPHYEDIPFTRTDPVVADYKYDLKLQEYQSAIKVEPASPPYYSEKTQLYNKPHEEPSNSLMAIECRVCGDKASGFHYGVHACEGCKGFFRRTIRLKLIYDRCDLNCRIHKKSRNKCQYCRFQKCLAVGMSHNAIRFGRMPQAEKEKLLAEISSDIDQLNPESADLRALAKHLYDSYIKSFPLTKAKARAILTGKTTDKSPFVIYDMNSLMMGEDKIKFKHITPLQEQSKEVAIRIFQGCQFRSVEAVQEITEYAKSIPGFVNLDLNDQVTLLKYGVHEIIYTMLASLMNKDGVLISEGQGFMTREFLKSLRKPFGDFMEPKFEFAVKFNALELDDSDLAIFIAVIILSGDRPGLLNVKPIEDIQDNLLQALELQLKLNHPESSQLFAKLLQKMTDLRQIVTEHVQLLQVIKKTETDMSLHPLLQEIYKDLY
Description: as §1

5-HT1A [3] = target: T1, 5-HT1A; assay: Bioprofiling 6pt Antag 5-HT1A CHO; assay type: cell-based; conditions: antagonist readout vs 5-Carboxytryptamine (5-CT)
Description: as §1

Cav1.2 (L-type) [4] = target: T4, Cav1.2 (L-type); assay: Bioprofiling 6pt Antag Cav1.2 (L-type) ND7/23; assay type: cell-based; conditions: mouse/rat, ND7/23 cells; antagonist readout vs KCl
Description: as §1

ETB = target: T7, ETB (Homo sapiens, UniProt P24530); assay: Bioprofiling 6pt Antag ETB CHO; assay type: cell-based; conditions: antagonist readout vs BQ-3020
T7 construct: expressed in transfected cells; host or cells: CHO
T7 sequence (P24530 27-442): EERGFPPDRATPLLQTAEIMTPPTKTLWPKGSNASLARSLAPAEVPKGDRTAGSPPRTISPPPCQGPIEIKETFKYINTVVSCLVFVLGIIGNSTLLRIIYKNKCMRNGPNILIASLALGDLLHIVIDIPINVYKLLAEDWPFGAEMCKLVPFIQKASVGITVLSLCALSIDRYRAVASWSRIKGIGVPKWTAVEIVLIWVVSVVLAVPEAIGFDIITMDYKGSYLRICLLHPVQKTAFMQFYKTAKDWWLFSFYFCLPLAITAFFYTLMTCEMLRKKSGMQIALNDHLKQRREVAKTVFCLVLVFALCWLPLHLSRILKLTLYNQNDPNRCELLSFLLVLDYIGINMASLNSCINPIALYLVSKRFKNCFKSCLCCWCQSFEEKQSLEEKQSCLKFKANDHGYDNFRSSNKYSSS
Description: as §1

PDE4B2 = PDE4B2 (Homo sapiens, UniProt Q07343); assay: Bioprofiling 6pt Antag PDE4B2; assay type: biochemical; conditions: substrate cAMP
Description: as §1

T5 sequence (P35367 whole entry): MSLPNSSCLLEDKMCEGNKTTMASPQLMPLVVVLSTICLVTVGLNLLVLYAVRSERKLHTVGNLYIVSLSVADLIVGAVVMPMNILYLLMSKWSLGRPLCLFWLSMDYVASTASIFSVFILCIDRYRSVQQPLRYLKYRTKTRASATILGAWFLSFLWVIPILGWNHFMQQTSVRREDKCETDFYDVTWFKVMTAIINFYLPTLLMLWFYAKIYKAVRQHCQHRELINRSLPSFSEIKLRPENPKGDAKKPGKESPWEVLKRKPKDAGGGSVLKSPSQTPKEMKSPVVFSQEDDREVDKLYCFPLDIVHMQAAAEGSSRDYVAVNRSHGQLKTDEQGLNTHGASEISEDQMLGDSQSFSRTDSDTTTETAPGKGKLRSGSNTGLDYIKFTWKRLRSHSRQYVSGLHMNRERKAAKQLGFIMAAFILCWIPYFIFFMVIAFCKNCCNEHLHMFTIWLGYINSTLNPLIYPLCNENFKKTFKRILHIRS
T2 sequence (P28223 whole entry): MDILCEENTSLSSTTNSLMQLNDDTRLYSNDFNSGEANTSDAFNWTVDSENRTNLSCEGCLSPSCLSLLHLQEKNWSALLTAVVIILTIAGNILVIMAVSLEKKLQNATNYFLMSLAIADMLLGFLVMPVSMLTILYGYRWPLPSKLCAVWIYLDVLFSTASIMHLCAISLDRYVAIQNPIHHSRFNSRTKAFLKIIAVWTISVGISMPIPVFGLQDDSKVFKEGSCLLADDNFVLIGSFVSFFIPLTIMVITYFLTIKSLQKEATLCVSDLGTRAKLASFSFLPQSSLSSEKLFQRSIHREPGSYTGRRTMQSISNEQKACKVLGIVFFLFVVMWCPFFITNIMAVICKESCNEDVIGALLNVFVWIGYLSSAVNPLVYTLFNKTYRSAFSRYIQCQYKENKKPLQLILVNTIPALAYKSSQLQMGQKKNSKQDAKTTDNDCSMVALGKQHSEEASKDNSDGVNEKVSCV
T4 sequence (Q01815 whole entry): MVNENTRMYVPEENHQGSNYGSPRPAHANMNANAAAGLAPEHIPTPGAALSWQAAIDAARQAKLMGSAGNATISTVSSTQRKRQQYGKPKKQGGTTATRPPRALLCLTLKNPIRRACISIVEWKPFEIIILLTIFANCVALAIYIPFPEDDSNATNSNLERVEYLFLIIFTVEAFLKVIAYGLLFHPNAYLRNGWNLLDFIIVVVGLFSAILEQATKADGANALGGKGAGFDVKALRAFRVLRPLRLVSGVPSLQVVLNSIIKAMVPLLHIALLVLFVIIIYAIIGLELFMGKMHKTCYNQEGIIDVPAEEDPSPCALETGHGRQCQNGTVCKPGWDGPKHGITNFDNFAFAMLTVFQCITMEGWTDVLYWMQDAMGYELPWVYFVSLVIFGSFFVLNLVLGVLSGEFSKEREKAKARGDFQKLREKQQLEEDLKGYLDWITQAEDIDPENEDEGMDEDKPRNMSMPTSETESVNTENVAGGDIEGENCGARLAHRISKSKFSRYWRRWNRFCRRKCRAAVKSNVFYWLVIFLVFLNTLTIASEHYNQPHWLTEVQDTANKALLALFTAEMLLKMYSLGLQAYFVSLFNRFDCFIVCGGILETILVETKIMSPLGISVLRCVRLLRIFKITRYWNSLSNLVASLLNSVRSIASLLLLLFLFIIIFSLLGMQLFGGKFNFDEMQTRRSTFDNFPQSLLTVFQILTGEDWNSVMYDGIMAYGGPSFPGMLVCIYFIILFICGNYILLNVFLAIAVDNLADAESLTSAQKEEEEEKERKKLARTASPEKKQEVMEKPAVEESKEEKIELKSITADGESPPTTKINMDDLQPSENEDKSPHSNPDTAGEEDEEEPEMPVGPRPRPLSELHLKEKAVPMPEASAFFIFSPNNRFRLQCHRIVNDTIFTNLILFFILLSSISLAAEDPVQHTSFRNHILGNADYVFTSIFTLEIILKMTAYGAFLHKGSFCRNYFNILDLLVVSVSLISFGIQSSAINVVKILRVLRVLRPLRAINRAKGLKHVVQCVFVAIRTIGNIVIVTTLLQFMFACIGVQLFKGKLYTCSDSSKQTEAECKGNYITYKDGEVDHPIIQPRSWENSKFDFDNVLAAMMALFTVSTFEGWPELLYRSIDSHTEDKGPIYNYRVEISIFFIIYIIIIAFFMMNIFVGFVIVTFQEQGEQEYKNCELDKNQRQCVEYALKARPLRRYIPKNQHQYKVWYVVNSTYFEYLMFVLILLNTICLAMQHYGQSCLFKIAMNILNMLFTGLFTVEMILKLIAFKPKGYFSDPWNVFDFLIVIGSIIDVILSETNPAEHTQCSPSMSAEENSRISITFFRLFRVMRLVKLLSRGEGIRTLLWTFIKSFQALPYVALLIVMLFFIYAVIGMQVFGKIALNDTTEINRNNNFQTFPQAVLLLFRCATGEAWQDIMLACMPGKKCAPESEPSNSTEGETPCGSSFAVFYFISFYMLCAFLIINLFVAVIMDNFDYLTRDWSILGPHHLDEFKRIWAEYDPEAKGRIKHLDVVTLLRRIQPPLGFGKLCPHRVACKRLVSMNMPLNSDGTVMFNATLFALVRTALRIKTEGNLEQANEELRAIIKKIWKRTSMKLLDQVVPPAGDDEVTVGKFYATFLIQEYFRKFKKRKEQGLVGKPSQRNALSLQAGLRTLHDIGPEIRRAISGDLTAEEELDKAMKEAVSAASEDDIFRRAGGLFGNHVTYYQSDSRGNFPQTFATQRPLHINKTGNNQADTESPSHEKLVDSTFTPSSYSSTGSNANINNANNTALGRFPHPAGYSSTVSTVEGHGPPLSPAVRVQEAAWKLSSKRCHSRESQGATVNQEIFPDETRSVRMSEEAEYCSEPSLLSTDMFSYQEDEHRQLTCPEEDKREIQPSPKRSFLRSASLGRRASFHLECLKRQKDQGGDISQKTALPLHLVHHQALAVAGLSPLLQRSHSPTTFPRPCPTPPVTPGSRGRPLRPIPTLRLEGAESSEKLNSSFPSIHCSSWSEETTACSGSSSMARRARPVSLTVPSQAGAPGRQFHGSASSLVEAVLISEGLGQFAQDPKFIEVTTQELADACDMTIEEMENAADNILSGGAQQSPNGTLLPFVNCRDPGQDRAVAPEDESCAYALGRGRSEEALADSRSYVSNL
PDE4B2, sequence (Q07343 1-564 isoform Q07343-2): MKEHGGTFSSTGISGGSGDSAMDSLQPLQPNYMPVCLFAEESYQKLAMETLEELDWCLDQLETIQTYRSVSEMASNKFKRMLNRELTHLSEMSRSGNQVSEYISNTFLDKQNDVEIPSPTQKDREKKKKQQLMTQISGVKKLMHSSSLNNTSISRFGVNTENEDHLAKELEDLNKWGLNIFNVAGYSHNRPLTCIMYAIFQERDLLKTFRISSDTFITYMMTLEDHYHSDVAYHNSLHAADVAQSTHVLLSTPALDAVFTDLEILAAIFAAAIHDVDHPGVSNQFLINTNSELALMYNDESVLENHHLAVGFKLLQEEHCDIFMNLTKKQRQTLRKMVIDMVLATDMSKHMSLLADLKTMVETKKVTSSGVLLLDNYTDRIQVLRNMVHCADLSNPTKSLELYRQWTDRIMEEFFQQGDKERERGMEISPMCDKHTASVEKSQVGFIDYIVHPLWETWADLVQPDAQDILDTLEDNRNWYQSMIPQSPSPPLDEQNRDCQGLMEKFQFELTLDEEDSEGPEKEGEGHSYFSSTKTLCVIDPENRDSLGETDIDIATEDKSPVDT

Row | Structure (SMILES) | solubility kinetic at 24 h (Kinetic solubility) | KS PBS - pH 2 (Kinetic solubility) | KS pH 7.4 (Kinetic solubility) | EC50 (5-HT1A [1]) | EC50 (5-HT2A) | EC50 (Alpha1A) | EC50 (Cav1.2 (L-type) [2]) | EC50 (H1) | EC50 (PPARgamma) | IC50 (5-HT1A [3]) | IC50 (Cav1.2 (L-type) [4]) | IC50 (ETB) | IC50 (PDE4B2)
1 | Cn1nccc1C(=O)Nc1nc2ccc(C#N)cc2n1CC(C)(C)C [Compound 29, O=C(Nc1n(CC(C)(C)C)c(c2n1)cc(C#N)cc2)c3n(C)ncc3] | 3.11 µg/mL (≈ 9.24 µM) | 1.77 ug/mL | 9.2 μM | > 10 µM | > 10 µM | > 10 µM | > 10 µM | > 10 µM | > 10 µM | > 10 µM | > 10 µM | > 10 µM | > 10 µM
2 | Cn1nccc1C(=O)Nc1nc2ccc(C#N)cc2n1CC(F)(F)F [Compound 30, O=C(c1ccnn1C)Nc2nc(ccc(C#N)c3)c3n2CC(F)(F)F] | 9.22 µg/mL (≈ 26.5 µM) | 10.45 ug/mL | 26 μM | > 10 µM | > 10 µM | > 10 µM | > 10 µM | > 10 µM | > 10 µM | > 10 µM | > 10 µM | > 10 µM | > 10 µM
3 | Cn1nc(C(F)(F)F)cc1C(=O)Nc1nc2ccc(C#N)cc2n1CC(F)(F)F [Compound 39, O=C(c1cc(C(F)(F)F)nn1C)Nc2nc(ccc(C#N)c3)c3n2CC(F)(F)F] | 0.42 µg/mL (≈ 1.01 µM) | 0.42 ug/mL | <1.0 μM | > 10 µM | > 10 µM | > 10 µM | > 10 µM | > 10 µM | > 10 µM | > 10 µM | > 10 µM | > 10 µM | > 10 µM
4 | COc1ccc(C(=O)Nc2nc3ccc(C#N)cc3n2CC(F)(F)F)cn1 [Compound 43, O=C(c1ccc(OC)nc1)Nc2nc(ccc(C#N)c3)c3n2CC(F)(F)F] | 0.38 µg/mL (≈ 1.01 µM) | 0.38 ug/mL | – | > 10 µM | > 10 µM | > 10 µM | > 10 µM | > 10 µM | > 10 µM | > 10 µM | > 10 µM | > 10 µM | > 10 µM
5 | N#Cc1ccc2nc(NC(=O)c3ccnc(C(F)(F)F)c3)n(CC(F)(F)F)c2c1 [Compound 44, O=C(c1ccnc(C(F)(F)F)c1)Nc2nc(ccc(C#N)c3)c3n2CC(F)(F)F] | 0.41 µg/mL (≈ 0.992 µM) | 0.41 ug/mL | <1.0 μM | > 10 µM | > 10 µM | > 10 µM | > 10 µM | > 10 µM | > 10 µM | > 10 µM | > 10 µM | > 10 µM | > 10 µM
6 | N#Cc1ccc2nc(NC(=O)c3ccc(C(F)(F)F)nc3)n(CC(F)(F)F)c2c1 [Compound 45, O=C(c1ccc(C(F)(F)F)nc1)Nc2nc(ccc(C#N)c3)c3n2CC(F)(F)F] | 0.41 µg/mL (≈ 0.992 µM) | 0.41 ug/mL | – | > 10 µM | > 10 µM | > 10 µM | > 10 µM | > 10 µM | > 10 µM | > 10 µM | > 10 µM | > 10 µM | > 10 µM
